Literature values as cited in patent US20190300958A1, “GENETIC POLYMORPHISMS ASSOCIATED WITH VENOUS THROMBOSIS AND STATIN RESPONSE, METHODS OF DETECTION AND USES THEREOF” (Celera Corporation, priority 2010, published 2019).

Tests used:
myocyte cultures = conditions: animal models and myocyte cultures, compared to lipophilic statins
[1] = system: major cardiovascular events; conditions: study of 17,802 individuals

myopathic potential (myocyte cultures)	Compound	incidence of major cardiovascular events [1]
low myopathic potential	CC[C@H](C)C(=O)O[C@H]1C[C@H](O)C=C2C=C[C@H](C)[C@H](CC[C@@H](O)C[C@@H](O)CC(=O)O)[C@H]21 [Pravastatin, pravastatin]	
	CC(C)c1nc(N(C)S(C)(=O)=O)nc(-c2ccc(F)cc2)c1/C=C/[C@@H](O)C[C@@H](O)CC(=O)O [rosuvastatin]	significantly reduced
